Data published in patent publication US20210244686A1, “Novel Systems And Methods For The Therapeutic Use of Cannabinoids or Cannabinoid Analogs to Increase The Lipid Order of Cholesterol Containing Cell Membranes” (The Regents of the University of Colorado a body corporate, priority 2018, published 2021).

Columns and labels:
Assay type in all cases: cell-based, human
[1] = tested on: endoplasmic reticulum in SKNBE2 and HaCaT keratinocyte cells; test: Confocal microscopy of rhodamine-glibenclamide staining, ER structure
Experimental: FIG. 16. Rhodamine-glibenclamide staining in live cells is visualized by confocal microscopy in live cells. ER structure is perturbed after 2 hours of exposure to CBD and o-1602, but not for o-1821 exposure.

[2] = tested on: SKNBE2 neuroblastoma cells; test: Flow cytometric analysis of rhodamine-glibenclamide staining in live cells
[3] = tested on: SK-N-BE(2) and HaCaT keratinocyte cell lines; test: FRET biosensor profiling of CBD response; conditions: CBD dose and time survey
Experimental: To efficiently design the multi-omics experiments, the present inventors exposed the neuroblastoma cell line SK-N-BE(2) to escalating doses of CBD at 24, 48, and 72 hours and determined the EC50 of toxicity of CBD to be greatest at 72 hours and at an approximate concentration of 20 μM (FIG. 1 B). To maximize the efficient use of the inventor's multi-omic resources, a large dose and time survey of the CBD response was conducted in a panel of transgenic SK-N-BE(2) and HaCaT keratinocyte cell lines, each expressing a genetically encoded förster resonance energy transfer (FRET) biosensor gene capable of reporting the activity of a cellular effector molecule/activity including, but not limited to: AMP kinase activity, Erk kinase activity, cytosolic ATP, glucose, lactate, pyruvate & glutamine, Ca^2+ in the ER & Cytosol, mTor kinase activity & TACE protease activity. […] The biosensor activity profiles as a function of CBD dose and time (FIGS. 9A-C) were analyzed for the EC50 of each biosensor activity at each time (FIG. 10). The result of these efforts outlined that the most robust dose of CBD for use in multi-omic experiments is 20 μM and that the kinetic profile of the CBD response begins in hours and persists for days.
Stable transgenic biosensor expressing cell lines were made in HaCaT and SK-N-BE(2) cells. […]

[4] = tested on: SK-N-BE(2) cells; test: 13C glucose labelled lipidomics of cholesterol biosynthesis; conditions: 20 μM CBD, 24 hours
Experimental: These findings raise the question of whether CBD treatment leads to alterations in lipid and cholesterol metabolism (the latter pathway depicted in FIG. 3A). The present inventors used mass spectrometry-based lipidomics, a subset of metabolomics, to quantify the effect of CBD on the fluxes of key lipids and sterols. Vehicle and CBD exposed cells were fed ^13C labeled glucose for 24 hours and harvested using methanol extraction and mass spectrometry analysis. Cholesterol biosynthesis was analyzed by determining the level of incorporation of ^13C into biosynthetic intermediates. […] The effect of CBD on total cellular cholesterol was confirmed using a fluorogenic assay for cholesterol in an orthogonal experiment (FIG. 11B).
Cultured cells were harvested, washed with PBS, flash frozen, and stored at −80 C. until analysis. Prior to LC-MS analysis, samples were placed on ice and re-suspended with methanol:acetonitrile:water (5:3:2, v/v/v) at a concentration of 2 million cells per ml. Suspensions were vortexed continuously for 30 min at 4° C. Insoluble material was removed by centrifugation at 10,000 g for 10 min at 4° C. and supernatants were isolated for metabolomics analysis by UHPLC-MS. This method was used for cholesterol precursors and free headgroups. […]

For C=C(C)[C@@H]1CCC(C)=C[C@H]1c1c(O)cc(CCCCC)cc1O [CBD, cannabidiol], the “alteration of the structure of the endoplasmic reticulum” value ([1]; SKNBE2 and HaCaT keratinocyte cells) was “dramatically alters the structure of the endoplasmic reticulum”, the ER structure ([1]; after 2 hours of exposure, live cells) was “perturbed” and the “cellular response similar to cholesterol drugs Atorvastatin and Ezetimibe” value ([2]; SKNBE2 neuroblastoma cells) was “low cholesterol response”. For the same compound, the rhodamine-glibenclamide fluorescence ([2]; live cells, flow cytometry) was “Enhanced fluorescence”, the “biosensor activities across panel” value [3] was “causes modulation of all biochemical pathways that were probed” and the “labeled and total cholesterol” value [4] was “decrease”. For the same compound, the “total and isotopically-labeled levels of cholesterol precursors” value [4] was “accumulate”.
